Measured values as given in patent US5236926A, “9-substituted-8-halo or -8-hydroxy-9-deazaguanines as inhibitors or PNP for pharmaceutical compositions” (Warner-Lambert Company, priority 1992, dated 1993).

Tests used:
[1] = target: T1, purine nucleoside phosphorylase (PNP-4) (Homo sapiens, UniProt P00491); assay: PNP-4 enzyme assay (radiochemical, [14C]-hypoxanthine formation from [14C]inosine); format: biochemical; conditions: human erythrocyte as enzyme source; activity table
T1 construct: using human erythrocyte as the enzyme source; from tissue; host or cells: human erythrocyte
T1 sequence (P00491 1-289): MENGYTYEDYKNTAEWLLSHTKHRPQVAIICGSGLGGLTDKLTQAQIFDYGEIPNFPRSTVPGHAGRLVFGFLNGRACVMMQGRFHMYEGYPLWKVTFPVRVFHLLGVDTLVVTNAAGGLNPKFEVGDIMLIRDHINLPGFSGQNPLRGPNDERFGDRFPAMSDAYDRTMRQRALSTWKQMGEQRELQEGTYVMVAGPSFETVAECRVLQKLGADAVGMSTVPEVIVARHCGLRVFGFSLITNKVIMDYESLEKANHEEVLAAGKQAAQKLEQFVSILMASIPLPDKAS
Description: In the purine nucleoside phosphorylase (PNP-4) enzyme assay, an IC50 is achieved at a dose of about from 0.9 to 3.18 micromoles on selected compounds of the present invention. PNP-4 activity for the compounds of Formula I is measured radiochemically by measuring the formation of [^14 -C]-hypoxanthine from [^14 -C]inosine [Biomedicine 33:39 (1980)]using human erythrocyte as the enzyme source. An in vivo inhibition of purine nucleoside phosphorylase (HPLC-1) enzyme assay is used essentially as disclosed in the Annals of New York Academy of Sciences 451:313 (1985) to further show the activity of the compounds of Formula I of the present invention. […] Since removal of T-cells or modulation of T-cells are beneficial in the treatment of autoimmune diseases, these compounds being selectively cytotoxic to T-cells will, therefore, be useful in their treatment. […] Clinically it has been shown that modulation and/or removal of T-cells by thoracic duct drainage, lymphapheresis, or total lymphoid irradiation gave partial to complete relief from rheumatoid arthritis in patients who were totally refractory to other forms of therapy [A. Tanay, et al, Arthritis and Rheumatism 30(1):1 (1987); S. Strober, et al, Annual of Internal Medicine V-102(4):441-449 (1985); H. G. Nusslein, et al, Arthritis and Rheumatism V-28(11):1205-1210 (1985); E. Brahn, et al, ibid V-27(5):481-487 (1984); and J. Karsh, et al, ibid V 24(7):867-873. (1981)]. […] N. Ellis, et al, JAMA V-256( 22):3110-3116 (Dec. 12, 1986).

[2] = system: skin graft in dogs; conditions: cited from earlier work

Structure (SMILES) | IC50 [1] [µM] | inhibition of rejection of skin graft [2]
Nc1nc2c(Cc3ccsc3)c(Br)[nH]c2c(=O)[nH]1 [Example 3, 2-Amino-6-bromo-3,5-dihydro-7-(3-thienylmethyl)-4H-pyrrolo[3,2-d]pyrimidin-4-one] | 6.9 | 
Nc1nc2c(nc(N)n2[C@@H]2O[C@H](CO)[C@@H](O)[C@H]2O)c(=O)[nH]1 [8-Aminoguanosine] |  | efficacious for inhibiting rejection of skin graft in dogs
Nc1nc2c(Cc3ccsc3)c(F)[nH]c2c(=O)[nH]1 [Example 8, 2-Amino-6-fluoro-3,5-dihydro-7-(3-thienylmethyl) 4H-pyrrolo[3,2-d]pyrimidin-4 one] | 0.15 | 
Nc1nc2c(Cc3ccsc3)c(I)[nH]c2c(=O)[nH]1 [Example 5] | > 30 | 
Nc1nc2c(Cc3ccsc3)c(Cl)[nH]c2c(=O)[nH]1 [Example 6, 2-Amino-6-chloro-3,5-dihydro-7-(3-thienylmethyl)-4H-pyrrolo[3,2-d]pyrimidin-4-one] | 2.77 | 
